According to patent US11286243B2 (GLOBAL BLOOD THERAPEUTICS, INC., priority 2018, dated 2022):

Biological target: T1, human ferroportin (Homo sapiens, UniProt Q9NP59)
T1 construct: luciferase reporter (probably NanoLuc: read with the Nano-Glo Luciferase Assay System); expressed in transfected cells; host or cells: CHO cells, stably transfected, doxycycline-inducible expression
T1 sequence (Q9NP59 1-571): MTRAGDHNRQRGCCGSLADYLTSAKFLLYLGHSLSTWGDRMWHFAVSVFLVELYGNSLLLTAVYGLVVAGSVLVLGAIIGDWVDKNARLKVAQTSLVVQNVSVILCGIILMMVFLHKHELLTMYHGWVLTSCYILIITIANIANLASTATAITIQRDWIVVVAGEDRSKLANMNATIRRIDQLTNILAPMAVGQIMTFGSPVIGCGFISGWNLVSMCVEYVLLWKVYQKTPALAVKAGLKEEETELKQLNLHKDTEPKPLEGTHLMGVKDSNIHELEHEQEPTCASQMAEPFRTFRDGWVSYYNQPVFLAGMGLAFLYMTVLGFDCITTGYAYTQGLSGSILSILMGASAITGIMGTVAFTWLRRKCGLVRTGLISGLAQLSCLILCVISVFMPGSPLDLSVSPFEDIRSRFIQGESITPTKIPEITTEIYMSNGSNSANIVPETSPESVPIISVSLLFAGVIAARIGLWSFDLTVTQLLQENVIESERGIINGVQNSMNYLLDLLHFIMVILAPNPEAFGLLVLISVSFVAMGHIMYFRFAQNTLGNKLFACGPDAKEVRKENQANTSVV
Assay: In-vitro ferroportin internalization assay (luciferase reporter)
Type: cell-based
Conditions: average pEC50; stably-transfected CHO cell line expressing human ferroportin tagged to a luciferase reporter; 6 h incubation with test compounds
How it was run: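 CHO cells stably expressing human ferroportin fused to a luciferase reporter were plated 24 h with ferric ammonium citrate, then induced with doxycycline for 24 h. Compounds in DMSO were incubated with cells for 6 h before luciferase readout by Nano-Glo. Results are reported as average pEC50.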

pEC50: 7.1
SMILES: Oc1nc(NCc2ncccc2F)c2nc([C@H](F)CNCCc3nc4ccccc4[nH]3)sc2n1 [Compound 83, 2-[(1R)-2-{[2-(1H-1,3-benzodiazol-2-yl)ethyl]amino}-1-fluoroethyl]-7-{[(3-fluoropyridin-2-yl)methyl]amino}-[1,3]thiazolo[5,4-d]pyrimidin-5-ol]
